Structures are written as SMILES.

Experiment [1] concerns the target Homeodomain-interacting protein kinase 3 (Homo sapiens, UniProt Q9H422). The experiment in a line: Selectivity interaction (Ambit KINOMEscan and KiNATiv profiling in Jurkat cells) EUB0000090b HIPK3. Type of experiment: cell-based. Particulars: at 1 µM.
Experiment [2] deals with T1, MAP kinase-activated protein kinase 5 (Homo sapiens) (UniProt Q8IW41).
T1 sequence (whole entry): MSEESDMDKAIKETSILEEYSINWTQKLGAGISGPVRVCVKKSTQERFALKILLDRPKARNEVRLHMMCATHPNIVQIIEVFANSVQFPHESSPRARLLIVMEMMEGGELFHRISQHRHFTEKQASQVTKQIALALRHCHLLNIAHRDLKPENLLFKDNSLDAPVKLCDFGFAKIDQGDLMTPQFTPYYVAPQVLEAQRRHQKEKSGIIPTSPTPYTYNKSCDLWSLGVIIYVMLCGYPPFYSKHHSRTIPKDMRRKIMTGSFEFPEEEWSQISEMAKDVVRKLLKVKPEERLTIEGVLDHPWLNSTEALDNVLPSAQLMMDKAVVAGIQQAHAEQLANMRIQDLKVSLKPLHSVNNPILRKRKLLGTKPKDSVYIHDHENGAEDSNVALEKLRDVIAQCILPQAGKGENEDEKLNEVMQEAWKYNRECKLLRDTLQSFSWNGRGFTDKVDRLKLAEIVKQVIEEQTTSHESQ
Description: Selectivity interaction (KinomeScan (DiscoverX)) EUB0000695a MAPKAPK5. Particulars: at 100 nM.

In experiment [3] the target is T2, Tyrosine-protein kinase ITK/TSK (Homo sapiens) (UniProt Q08881).
T2 sequence (whole entry): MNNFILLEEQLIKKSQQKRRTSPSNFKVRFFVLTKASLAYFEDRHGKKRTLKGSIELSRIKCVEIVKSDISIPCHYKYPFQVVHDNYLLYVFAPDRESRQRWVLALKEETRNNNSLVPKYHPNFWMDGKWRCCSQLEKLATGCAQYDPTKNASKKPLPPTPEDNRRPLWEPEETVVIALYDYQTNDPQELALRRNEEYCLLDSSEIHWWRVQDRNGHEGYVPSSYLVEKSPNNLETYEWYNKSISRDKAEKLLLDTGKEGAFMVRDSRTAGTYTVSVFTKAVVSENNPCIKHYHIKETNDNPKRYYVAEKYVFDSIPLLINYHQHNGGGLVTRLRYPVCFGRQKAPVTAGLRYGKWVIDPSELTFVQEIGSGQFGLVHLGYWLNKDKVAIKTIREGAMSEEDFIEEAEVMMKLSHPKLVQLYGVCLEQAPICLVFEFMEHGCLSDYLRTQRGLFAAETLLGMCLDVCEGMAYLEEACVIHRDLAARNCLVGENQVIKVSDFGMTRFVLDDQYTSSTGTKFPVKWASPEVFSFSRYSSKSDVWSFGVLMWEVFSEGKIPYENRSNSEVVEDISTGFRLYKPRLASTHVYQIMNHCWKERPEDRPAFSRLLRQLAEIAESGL
The experiment in a line: Selectivity interaction (KinomeScan (DiscoverX)) EUB0000666a ITK. Particulars: at 10 µM.

Experiment [4] has as its target Mitogen-activated protein kinase 1 (Homo sapiens, UniProt P28482). The experiment in a line: Selectivity interaction (KinomeScan (DiscoverX)) EUB0000607a MAPK1. The following applies: at 10 µM.
Experiment [5] concerns the target T3, Mitogen-activated protein kinase kinase kinase 12 (Homo sapiens) (UniProt Q12852).
T3 sequence (whole entry): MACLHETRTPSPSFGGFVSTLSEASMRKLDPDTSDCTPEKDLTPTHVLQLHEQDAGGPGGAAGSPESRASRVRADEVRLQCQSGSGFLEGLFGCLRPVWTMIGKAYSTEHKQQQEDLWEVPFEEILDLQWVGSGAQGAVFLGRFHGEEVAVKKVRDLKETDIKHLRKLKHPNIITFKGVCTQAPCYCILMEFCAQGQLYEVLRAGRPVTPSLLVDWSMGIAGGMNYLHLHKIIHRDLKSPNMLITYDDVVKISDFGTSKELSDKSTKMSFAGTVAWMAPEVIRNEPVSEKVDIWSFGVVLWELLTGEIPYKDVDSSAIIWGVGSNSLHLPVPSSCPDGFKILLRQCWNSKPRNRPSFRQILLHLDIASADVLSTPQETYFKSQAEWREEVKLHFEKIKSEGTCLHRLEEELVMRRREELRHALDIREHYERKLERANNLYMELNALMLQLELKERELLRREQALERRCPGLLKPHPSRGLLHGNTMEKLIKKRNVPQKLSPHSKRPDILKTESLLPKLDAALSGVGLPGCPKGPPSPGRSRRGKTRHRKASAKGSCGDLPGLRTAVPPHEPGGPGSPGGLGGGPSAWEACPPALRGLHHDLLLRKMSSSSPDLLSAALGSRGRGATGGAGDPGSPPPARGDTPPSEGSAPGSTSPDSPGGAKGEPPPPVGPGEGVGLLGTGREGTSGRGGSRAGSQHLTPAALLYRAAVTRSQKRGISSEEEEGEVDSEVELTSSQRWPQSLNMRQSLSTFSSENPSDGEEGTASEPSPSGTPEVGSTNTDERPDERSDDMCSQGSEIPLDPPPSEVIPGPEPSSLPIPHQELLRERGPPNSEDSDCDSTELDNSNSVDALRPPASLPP
The experiment in a line: Selectivity interaction (KinomeScan (DiscoverX)) EUB0000229b MAP3K12. The following applies: at 10 µM.

Mitogen-activated protein kinase 1, sequence (P28482 whole entry): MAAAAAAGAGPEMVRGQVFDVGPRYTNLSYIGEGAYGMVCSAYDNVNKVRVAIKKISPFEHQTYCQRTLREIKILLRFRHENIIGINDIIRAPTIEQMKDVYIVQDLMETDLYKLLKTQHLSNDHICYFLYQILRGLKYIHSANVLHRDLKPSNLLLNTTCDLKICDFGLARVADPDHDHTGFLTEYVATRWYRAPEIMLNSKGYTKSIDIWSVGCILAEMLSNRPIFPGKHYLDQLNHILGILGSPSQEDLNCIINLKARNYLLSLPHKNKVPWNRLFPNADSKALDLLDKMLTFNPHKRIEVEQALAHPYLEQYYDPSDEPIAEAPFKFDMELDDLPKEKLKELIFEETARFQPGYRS
Homeodomain-interacting protein kinase 3, sequence (Q9H422 whole entry, looked up): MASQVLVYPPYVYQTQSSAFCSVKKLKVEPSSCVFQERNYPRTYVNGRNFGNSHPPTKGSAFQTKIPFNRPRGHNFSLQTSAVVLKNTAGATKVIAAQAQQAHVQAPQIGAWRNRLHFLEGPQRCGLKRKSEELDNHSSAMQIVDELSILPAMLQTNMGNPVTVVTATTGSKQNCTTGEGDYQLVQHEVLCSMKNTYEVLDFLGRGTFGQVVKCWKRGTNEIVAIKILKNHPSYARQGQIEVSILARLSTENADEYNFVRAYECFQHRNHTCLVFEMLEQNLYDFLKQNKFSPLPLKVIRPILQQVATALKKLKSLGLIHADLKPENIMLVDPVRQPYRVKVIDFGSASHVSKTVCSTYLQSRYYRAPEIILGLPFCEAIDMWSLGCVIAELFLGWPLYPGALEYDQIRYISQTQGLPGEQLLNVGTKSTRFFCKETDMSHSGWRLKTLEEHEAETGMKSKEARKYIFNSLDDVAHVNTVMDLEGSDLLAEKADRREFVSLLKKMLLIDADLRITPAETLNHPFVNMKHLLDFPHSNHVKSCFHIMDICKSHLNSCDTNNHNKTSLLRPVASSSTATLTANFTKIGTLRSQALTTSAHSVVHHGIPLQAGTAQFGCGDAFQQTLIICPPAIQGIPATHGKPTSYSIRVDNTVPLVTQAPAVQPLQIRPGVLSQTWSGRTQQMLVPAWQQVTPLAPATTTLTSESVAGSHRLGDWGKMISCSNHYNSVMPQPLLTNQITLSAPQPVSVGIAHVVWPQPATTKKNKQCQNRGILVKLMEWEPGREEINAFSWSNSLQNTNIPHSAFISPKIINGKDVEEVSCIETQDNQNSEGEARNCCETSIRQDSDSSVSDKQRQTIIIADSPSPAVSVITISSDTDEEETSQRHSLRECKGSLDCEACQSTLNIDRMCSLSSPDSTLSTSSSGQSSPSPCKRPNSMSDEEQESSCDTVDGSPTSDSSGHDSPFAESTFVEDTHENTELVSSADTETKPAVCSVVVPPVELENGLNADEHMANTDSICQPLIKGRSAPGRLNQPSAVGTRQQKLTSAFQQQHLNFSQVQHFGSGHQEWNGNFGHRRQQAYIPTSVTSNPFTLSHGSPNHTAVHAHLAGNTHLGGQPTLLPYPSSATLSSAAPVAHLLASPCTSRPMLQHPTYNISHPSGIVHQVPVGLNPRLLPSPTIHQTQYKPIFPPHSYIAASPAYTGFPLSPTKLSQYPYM

`CN(C)C/C=C/C(=O)Nc1ccc(C(=O)N2CCCC(Nc3ncc(Cl)c(-c4c[nH]c5ccccc45)n3)C2)cc1` (stereo not given) displayed a % of control in experiment [1] of 85%.

Compound `Cc1cc(F)c(C(=O)Nc2cccc(-c3nncn3C(C)C)n2)cc1-n1cnc(C2CC2)c1` registered a % of control in experiment [2] of 76%.

With `O=C(NOC[C@H](O)CO)c1ccc(F)c(F)c1Nc1ccc(I)cc1F`, the % of control in experiment [3] was determined as 97%.

In experiment [4], `CNC(=O)Nc1ccc(-c2nc(N3CC4CCC(C3)O4)c3cnn(C4CCC5(CC4)OCCO5)c3n2)cc1` registered a % of control of 87%.

`COc1cc(N(C)c2ccnc3ccc(C(F)(F)F)cc23)cc(OC)c1OC` returned a % binding in experiment [5] of 78%.
